The source of these data is US20020115721A1, “Esters of alkycarboxy amino acids as prodrugs of modulators of the kainate receptor” (Annovis, Inc., priority 2000, published 2002).

The structures appear in SMILES notation.

For data set [1], the system named is Sprague-Dawley rats. The experiment in a line: Rat allodynia/hyperalgesia pain model after capsaicin. Format: in vivo. Here is the method: This test is to determine the extent of protection by a test compound to neuropathic pain sensations. With the rat standing on an elevated perforated floor, mechano-allodynia is measured by applying from beneath a graded series of von Frey hairs to the mid-plantar region of the effected paws. The hair that evokes at least one withdrawal response is designated the threshold level when compared to the sham treated nerve. Alternatively, the paw can be illuminated with a noxious radiant heat and the time to paw withdrawal is measured.
The model is described by Bennett, Neuro. Report 5, 1438-1440 (1994), and references cited therein. He measures changes in withdrawal latency after chronic constriction injury; a rat is prepared by bilaterally exposing the sciatic nerves on both thighs. On one side, loosely fitting constrictive ligatures are tied around the nerve; the other side is sham manipulated but not ligated. The model can also be used to measure increases in sensitivity and decreases in latency after injection of an irritating or pain inducing substance such as capsaicin or carrageenan.
A total of 40 adult male Sprague-Dawley rats, 250-300 g, were used. Baseline measures of withdrawal responses evoked by heat and mechanical stimuli were determined for each hind paw and obtained for at least 4 consecutive days until withdrawal and latency responses were stable. Four groups of 10 rats each were sorted to establish equivalent baseline mean responses to heat and mechanical stimuli. Each group was randomly assigned to 1 of 4 treatment conditions: vehicle, 10, 50, or 100 mg/kg compound i.p. On test day, withdrawal responses to heat and mechanical stimuli were measured before intraperitoneal injection of the treatment condition. […] Capsaicin (10 μl of 0.1%, intraplantar) was administered 30 minutes after i.p. injection. Withdrawal responses to heat and mechanical stimuli were again measured 5 and 30 minutes post capsaicin. The contralateral paw served as an internal control. The experimenter was blind to the treatment condition.
The prodrugs were tested in the allodynia model after inducing pain with capsaicin.
A total of 24 adult male Sprague-Dawley rats, 250-300 g., were used and treated according to protocol described above using (2S,4R)-4-methyl glumatic acid methyl ester.
A total of 33 adult male Sprague-Dawley rats, 250-300 g., were treated according to protocol described above using (2S,4R)-4-methyl glumatic acid ethyl ester. The concentrations of the compound were […].

The target in data set [2] is glycine site of the NMDA receptor (Homo sapiens, UniProt Q05586). To be noted: cited from earlier work.
The subject of data set [3] is AMPA receptor as compared to the kainate receptor. Particulars: selectivity ratio; cited from earlier work.
The conditions of data set [4]: cited from earlier work.
Data set [5] deals with Sprague-Dawley rats. Nature of the data set: Rat allodynia/hyperalgesia pain model after capsaicin. It counts as in vivo. Particulars: 1 hour before capsaicin.
The nature of data set [6]: Prodrug hydrolysis to the acid form in plasma. Format: in vitro ADME. The text has this:
The ester bond in any of the disclosed prodrug compositions can be readily cleaved in vivo. Therefore, prodrug compositions of Formula I can be hydrolyzed to the corresponding acids form in plasma.

The term melting point denotes the temperature, or range, at which the solid turns liquid.

On to `C[C@H](C[C@H](N)C(=O)O)C(=O)O` [Compound 1, (2S,4R)-4-Methyl glutamic acid], for which the “blocking hyperalgesia to heat” value in data set [1] (10, 50, 100 mg/kg i.p., capsaicin) is reported as “effective”. In addition, the blocking mechanical hyperalgesia result in data set [1] (10, 50, and 100 mg/kg i.p., capsaicin intraplantar 30 minutes after injection) was “effective”. The “mechanical hyperalgesia versus vehicle (p<0.05)” value in data set [1] (5 minutes post capsaicin, all doses (10, 50, 100 mg/kg i.p.)) is “significantly different from vehicle”; in data set [1] (30 minutes post capsaicin, 100 mg/kg i.p. only) it was “remained significantly different from vehicle”. Besides, in data set [1] (30 minute time point), the “hyperalgesia to heat versus vehicle” value is “not significantly different from vehicle”. For the same compound, the “hyperalgesia to heat versus vehicle (p<0.05)” value in data set [1] (all three doses (10, 50, 100 mg/kg i.p.), early time point) is “significantly different from vehicle”.
Consider `CCOC(=O)[C@H](C)C[C@H](N)C(=O)OCC.Cl` [Compound 3, (2S,4R)-4-Methyl Glutamic Acid Diethyl Ester Hydrochloride], for which the melting point is 158 to 160 °C. Also, in data set [1] (0.1 to 50 mg/kg i.p., capsaicin), the “blocking hyperalgesia to heat” value is “not effective”. Moreover, the “blocking mechanical hyperalgesia (p<0.05)” value in data set [1] (10 and 50 mg/kg i.p., capsaicin) was “effective”.
Regarding `NS(=O)(=O)c1cccc2c3c(cc([N+](=O)[O-])c12)=NC(=O)C(=O)N=3` [NBQX, 6-nitro-7-sulfamoylbenzoquinoxaline-2,3-dione], the “binding to glycine site of NMDA receptor” value in data set [2] is on record as “non-specifically binds”. Also, the “affinity for AMPA receptor as compared to kainate receptor” value in data set [3] is on record as “thirty”. Besides, in data set [4], the solubility in water result is on record as “very limited”.
As to `COC(=O)[C@H](N)C[C@H](C)C(=O)OC.Cl`, the melting point lay within 138 to 139 °C.
`CCOC(=O)[C@H](N)C[C@H](C)C(=O)OCC.Cl` returned a melting point of 158 to 160 °C.
Compound `COC(=O)[C@H](C)C[C@H](N)C(=O)OC.Cl` [Compound 2, (2S,4R)-4-Methyl Glutamic Acid Dimethyl Ester Hydrochloride] registered a melting point of 138 to 139 °C. In data set [5] (0.1 mg/kg i.p.), the “prevention of development of hyperalgesia” value is on record as “no effect”. Besides, the hyperalgesia prevention entry in data set [5] (1 mg/kg i.p.) is “about 40%”. Moreover, in data set [5] (10 and 50 mg/kg i.p.), the “prevention of development of hyperalgesia” value is “totally prevented”. Also, the “hydrolysis to (2S,4R)-4-methyl glutamic acid (1)” value in data set [6] was “readily hydrolyzed”. Further, in data set [1] (10 mg/kg i.p., capsaicin), the “hyperalgesia to mechanical stimuli (p<0.05)” value is reported as “reduced” and the “hyperalgesia to radiant heat (p<0.05)” value is “reduced”.
